The results in this text go back to the OPERA property sets (Mansouri et al. 2018).

One may read the logP as a log measure of how a compound divides between an organic and an aqueous phase. Low readings indicate lower lipophilicity, high ones higher lipophilicity. What is called solubility is the dissolved amount per volume that the medium holds. Read a low solubility as little dissolved substance.

Converted amounts (≈) assume the structure as drawn.

Settings in the first data set: not given
Molecule `CCCCCCl` came in with a logP of 2.73.

Still in this data set, the particulars now being: 25 °C.
For `CC(C)CC(C)(C)O`, the solubility came out at 113 mM (≈ 13200 µg/mL). Still for that read-out and setting: as for `Ic1cccc(I)c1`, the figure is 0.0286 mM (≈ 9.43 µg/mL); as for `CCCOCC`, 173 mM (≈ 15200 µg/mL).

`CCCOC(=O)CC` came in with a solubility of 45.6 mM (≈ 5300 µg/mL). Still for that read-out and setting: for `Clc1ccccc1Br` the value was 0.383 mM (≈ 73.4 µg/mL). As for `CC(C)CCOC=O`, the solubility came out at 29.3 mM (≈ 3400 µg/mL). `CCCCCCC(=O)OCC` returned a solubility of 1.83 mM (≈ 290 µg/mL). For the molecule `CCCCOC`, the solubility was 102 mM (≈ 9010 µg/mL). Same read-out and setting: as for `CCC(C)C(C)(C)O` (stereo unspecified), the figure is 135 mM (≈ 15700 µg/mL). `CCOC(=O)CCCCCCC(=O)OCC` yielded a solubility of 2.95 mM (≈ 679 µg/mL). Same read-out and setting: for `CCCCCC[C@@H](O)CC` the value was 2.18 mM (≈ 315 µg/mL); for `C=COC=C`, 77.6 mM (≈ 5440 µg/mL). Turning to `CCC(=O)C(C)C`, the solubility came out at 155 mM (≈ 15500 µg/mL). Still for that read-out and setting: for `CCCCC(=O)OCC` the value was 17 mM (≈ 2210 µg/mL); for `CCCCCCCC(=O)OCC`, 0.407 mM (≈ 70.1 µg/mL). Still for that read-out and setting: for `Brc1ccc(Br)c(Br)c1` the value was 0.0222 mM (≈ 7 µg/mL); for `CCCCCCC=O`, 10.9 mM (≈ 1250 µg/mL). On to `CCC(=O)OC(C)C`, for which the solubility stood at 51.2 mM (≈ 5950 µg/mL).

`CCC(C)(O)C(C)(C)C` (stereo unspecified) showed a solubility of 53.6 mM (≈ 6980 µg/mL). For `FC(F)(F)CCl`, the solubility came to 77.7 mM (≈ 9200 µg/mL).

`CCCCCCCCCC(=O)OCC` showed a solubility of 0.0793 mM (≈ 15.9 µg/mL). Molecule `C#CCCCCCCC` registered a solubility of 0.068 mM (≈ 8.45 µg/mL). The same measure, in the same setting: for `CCC(C)C(O)C(C)CC` (stereo unspecified) the value was 3.08 mM (≈ 445 µg/mL); for `CC(C)C(C)(C)O`, 407 mM (≈ 41500 µg/mL). In turn, `CCOC(C)C` had a solubility of 278 mM (≈ 24500 µg/mL). For `CCOC(=O)CCCCCCCC(=O)OCC`, the solubility was found to be 1.02 mM (≈ 250 µg/mL).

In the case of `CCCCCCCCCC(C)O` (stereo unspecified), the solubility is 1.15 mM (≈ 197 µg/mL). `CC(C)COC=O` came in with a solubility of 99.9 mM (≈ 10200 µg/mL). Same read-out and setting: for `CCCCOC(=O)c1ccc(N)cc1` the value was 1.75 mM (≈ 337 µg/mL). As to `COc1ccc(NC(C)=O)cc1`, the solubility is 91.1 mM (≈ 15100 µg/mL). On to `CCCCCC(=O)OCC`, for which the solubility was determined as 4.36 mM (≈ 629 µg/mL). Molecule `C/C=C\C` returned a solubility of 10.3 mM (≈ 580 µg/mL). Still for that read-out and setting: as for `Clc1cccc(I)c1`, the figure is 0.288 mM (≈ 68.6 µg/mL); as for `C=CC(O)CC` (stereo unspecified), 1050 mM (≈ 90000 µg/mL). The same measure, in the same setting: for `CCOC(=O)CCCCCC(=O)OCC` the value was 9.4 mM (≈ 2030 µg/mL). `CC(C)CC(C)CO` (stereo unspecified) showed a solubility of 25.1 mM (≈ 2910 µg/mL). The same measure, in the same setting: for `CCCCCCCCC(=O)OCC` the value was 0.158 mM (≈ 29.5 µg/mL). Same read-out and setting: for `CCCC(Cl)Cl` the value was 3.96 mM (≈ 504 µg/mL). With `Clc1ccccc1I`, the solubility is 0.291 mM (≈ 69.4 µg/mL).

Still in this data set, the particulars now being: 27 °C.
In turn, `Ic1ccccc1I` had a solubility of 0.0591 mM (≈ 19.5 µg/mL).
